± gives the expanded uncertainty stated by the source.
Key:
[1] = 101.32 kPa, Liquid
[2] = refractive index (Na D-line) (dimensionless); conditions: 101.33 kPa, Liquid, Standard Abbe refractometry
[3] = xn = mol fraction of the nth substance listed; conditions: 101.32 kPa, Liquid, x2 = 0
[4] = refractive index (Na D-line) (dimensionless); xn = mol fraction of the nth substance listed; conditions: 101.32 kPa, Liquid, Standard Abbe refractometry, x2 = 0

Row | mass density ([1]; 288.15 K) [kg/m3] | mass density ([1]; 298.15 K) [kg/m3] | mass density ([1]; 308.15 K) [kg/m3] | mass density ([1]; 318.15 K) [kg/m3] | refractive index ([2]; 288.15 K) | refractive index ([2]; 298.15 K) | refractive index ([2]; 308.15 K) | refractive index ([2]; 318.15 K) | mass density ([3]; 288.15 K) [kg/m3] | mass density ([3]; 298.15 K) [kg/m3] | mass density ([3]; 308.15 K) [kg/m3] | mass density ([3]; 318.15 K) [kg/m3] | refractive index ([4]; 288.15 K) | refractive index ([4]; 298.15 K) | refractive index ([4]; 308.15 K) | refractive index ([4]; 318.15 K) | Structure (SMILES)
1 | 872.4 ± 0.3 | 861.5 ± 0.3 | 850.4 ± 0.4 | 839.2 ± 0.4 | 1.3824 ± 0.0005 | 1.3772 ± 0.0005 | 1.3722 ± 0.0005 | 1.3672 ± 0.0005 |  |  |  |  |  |  |  |  | COCCOC [1,2-dimethoxyethane]
2 | 793.6 ± 0.5 | 785.2 ± 0.5 | 776.6 ± 0.5 | 767.9 ± 0.5 | 1.3632 ± 0.0005 | 1.3591 ± 0.0005 | 1.3551 ± 0.0005 | 1.3509 ± 0.0005 |  |  |  |  |  |  |  |  | CCO [ethanol]
3 |  |  |  |  |  |  |  |  | 793.6 ± 0.5 | 785.2 ± 0.5 | 776.6 ± 0.5 | 767.9 ± 0.5 | 1.3632 ± 0.0005 | 1.3591 ± 0.0005 | 1.3551 ± 0.0005 | 1.3509 ± 0.0005 | CCO [ethanol] + COCCOCCOC
4 | 948.6 ± 0.3 | 938.7 ± 0.3 | 928.7 ± 0.3 | 918.6 ± 0.3 | 1.4101 ± 0.0005 | 1.4058 ± 0.0005 | 1.4012 ± 0.0005 | 1.3968 ± 0.0005 |  |  |  |  |  |  |  |  | COCCOCCOC [2,5,8-trioxanonane]
5 | 1016 ± 0.3 | 1006.6 ± 0.3 | 997.4 ± 0.3 | 988.1 ± 0.3 | 1.4344 ± 0.0003 | 1.4303 ± 0.0003 | 1.4262 ± 0.0003 | 1.4221 ± 0.0003 |  |  |  |  |  |  |  |  | COCCOCCOCCOCCOC [2,5,8,11,14-pentaoxapentadecane]
6 |  |  |  |  |  |  |  |  | 793.6 ± 0.5 | 785.2 ± 0.5 | 776.6 ± 0.5 | 767.9 ± 0.5 | 1.3632 ± 0.0005 | 1.3591 ± 0.0005 | 1.3551 ± 0.0005 | 1.3509 ± 0.0005 | CCO [ethanol] + COCCOC
7 |  |  |  |  |  |  |  |  | 793.6 ± 0.5 | 785.2 ± 0.5 | 776.6 ± 0.5 | 767.9 ± 0.5 | 1.3632 ± 0.0005 | 1.3591 ± 0.0005 | 1.3551 ± 0.0005 | 1.3509 ± 0.0005 | CCO [ethanol] + COCCOCCOCCOC
8 |  |  |  |  |  |  |  |  | 793.6 ± 0.5 | 785.2 ± 0.5 | 776.6 ± 0.5 | 767.9 ± 0.5 | 1.3632 ± 0.0003 | 1.3591 ± 0.0003 | 1.3551 ± 0.0003 | 1.3509 ± 0.0003 | CCO [ethanol] + COCCOCCOCCOCCOC
9 | 989.7 ± 0.4 | 980.1 ± 0.4 | 970.7 ± 0.4 | 961.1 ± 0.4 | 1.425 ± 0.0005 | 1.4209 ± 0.0005 | 1.4167 ± 0.0005 | 1.4125 ± 0.0005 |  |  |  |  |  |  |  |  | COCCOCCOCCOC [2,5,8,11-tetraoxadodecane]

Reference: the NIST ThermoML archive (doi:10.1021/je0302304)
